Laboratory results taken from patent US20240246935A1 (Plexium, Inc., priority 2021, published 2024).

Columns and labels:
[1] = target: human E3 ligase component cereblon (CRBN) (Homo sapiens (Human), UniProt Q96SW2); experiment: Cereblon (CRBN) target engagement, NanoBRET TE Intracellular E3 Ligase Assay in transfected HEK-293T cells; settings: read-out: CRBN Binding EC50
How it was run: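 Live HEK-293T cells co-transfected overnight with NanoLuc-CRBN (CRBN at NanoLuc C-terminus) and DDB1 vectors (10:990 ng) were given CRBN tracer and an 11-point compound series for 2 h at 37° C. BRET read at 450/610 nm with extracellular NanoLuc inhibitor present; IC50 from four-parameter logistic fit.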

IKZF2 (Helios) = experiment: IKZF2 reporter degradation assay (HEK 293T IKZF2-mNeonGreen reporter cell line); format: cell-based, human; settings: 1 μM compound, 24 hour incubation, HEK 293T IKZF2-mNeonGreen reporter
How it was run: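 HEK 293T lines stably expressing each IKZF-GGGGS×3-mNeonGreen-P2A-mScarlet reporter, 4000 cells/well in FluoroBrite medium, treated with compound (≤0.5% DMSO) for 24 h at 37 °C. Imaging measured percent mNeonGreen-positive cells, with mScarlet used for segmentation; DC50 from four-parameter logistic fit.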

Chain of human E3 ligase component cereblon (CRBN) (Q96SW2 whole entry): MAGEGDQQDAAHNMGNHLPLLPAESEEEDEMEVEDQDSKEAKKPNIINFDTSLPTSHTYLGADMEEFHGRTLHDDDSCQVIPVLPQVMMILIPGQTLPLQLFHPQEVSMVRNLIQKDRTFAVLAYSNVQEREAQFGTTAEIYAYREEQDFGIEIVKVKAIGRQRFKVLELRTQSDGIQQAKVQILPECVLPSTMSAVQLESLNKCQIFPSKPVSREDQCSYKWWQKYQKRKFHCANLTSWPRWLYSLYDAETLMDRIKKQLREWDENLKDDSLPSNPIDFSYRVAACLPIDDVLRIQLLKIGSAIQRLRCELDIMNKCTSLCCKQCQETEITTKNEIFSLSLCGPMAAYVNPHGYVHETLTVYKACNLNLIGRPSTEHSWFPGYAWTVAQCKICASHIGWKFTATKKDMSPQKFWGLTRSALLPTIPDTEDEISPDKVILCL
Chain of human E3 ligase component cereblon (CRBN) (Q16531 whole entry partner): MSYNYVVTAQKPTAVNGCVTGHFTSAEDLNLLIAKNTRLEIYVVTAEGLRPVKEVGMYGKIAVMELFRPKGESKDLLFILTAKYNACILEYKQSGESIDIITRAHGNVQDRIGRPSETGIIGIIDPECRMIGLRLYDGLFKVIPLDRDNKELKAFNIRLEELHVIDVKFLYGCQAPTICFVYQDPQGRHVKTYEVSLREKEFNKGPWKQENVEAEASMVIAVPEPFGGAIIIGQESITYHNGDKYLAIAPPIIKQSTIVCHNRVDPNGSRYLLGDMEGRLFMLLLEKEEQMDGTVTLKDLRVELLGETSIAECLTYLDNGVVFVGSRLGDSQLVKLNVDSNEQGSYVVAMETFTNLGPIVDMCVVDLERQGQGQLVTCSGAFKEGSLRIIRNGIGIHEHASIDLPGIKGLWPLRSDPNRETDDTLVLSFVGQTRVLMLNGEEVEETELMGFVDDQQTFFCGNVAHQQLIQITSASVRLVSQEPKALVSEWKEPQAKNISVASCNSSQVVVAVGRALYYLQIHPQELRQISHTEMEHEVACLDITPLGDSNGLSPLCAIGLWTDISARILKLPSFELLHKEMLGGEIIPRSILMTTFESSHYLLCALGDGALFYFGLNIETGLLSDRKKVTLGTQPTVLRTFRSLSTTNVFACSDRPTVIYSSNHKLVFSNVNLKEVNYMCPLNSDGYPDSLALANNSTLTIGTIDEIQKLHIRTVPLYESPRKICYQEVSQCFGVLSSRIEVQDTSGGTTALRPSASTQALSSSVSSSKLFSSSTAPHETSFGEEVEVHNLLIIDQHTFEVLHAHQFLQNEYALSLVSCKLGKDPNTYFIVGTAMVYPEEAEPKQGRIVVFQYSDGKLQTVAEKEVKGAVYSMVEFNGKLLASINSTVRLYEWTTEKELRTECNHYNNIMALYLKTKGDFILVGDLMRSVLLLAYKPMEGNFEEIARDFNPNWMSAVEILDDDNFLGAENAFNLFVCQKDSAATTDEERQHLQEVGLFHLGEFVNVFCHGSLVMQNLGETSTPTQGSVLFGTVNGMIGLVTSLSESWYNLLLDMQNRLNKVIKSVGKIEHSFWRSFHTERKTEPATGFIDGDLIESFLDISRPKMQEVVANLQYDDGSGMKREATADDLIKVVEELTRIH

Compound	EC50 [1] [nM]	IKZF2 % Degradation @ 1 μM (IKZF2 (Helios)) [%]
O=C1CCC(N2Cc3cc(O[C@H]4CCCC[C@@H]4N4CC(c5ccc(C(F)(F)F)cc5)C4)ccc3C2=O)C(=O)N1 (stereo partly drawn) [Compound 58, 3-(1-oxo-5-(((1S,2S)-2-(3-(4-(trifluoromethyl)phenyl)azetidin-1-yl)cyclohexyl)oxy)isoindolin-2-yl)piperidine-2,6-dione]	71	85.8
O=C1CCC(N2Cc3cc(OC4CCCCC4N4CC(c5cccc(OC(F)(F)F)c5)C4)ccc3C2=O)C(=O)N1 (stereo not shown) [Compound 67, 3-(1-oxo-5-((2-(3-(3-(trifluoromethoxy)phenyl)azetidin-1-yl)cyclohexyl)oxy)isoindolin-2-yl)piperidine-2,6-dione]	17	37.8
O=C1CCC(N2Cc3cc(OC4CCCCC4N4CC(c5ccccc5OC(F)(F)F)C4)ccc3C2=O)C(=O)N1 (stereo not shown) [Compound 68, 3-(1-oxo-5-((2-(3-(2-(trifluoromethoxy)phenyl)azetidin-1-yl)cyclohexyl)oxy)isoindolin-2-yl)piperidine-2,6-dione]	26	42.5
O=C1CCC(N2Cc3cc(OC4CCCCC4N4CC(c5ccccc5C(F)(F)F)C4)ccc3C2=O)C(=O)N1 (stereo not shown) [Compound 69, 3-(1-oxo-5-((2-(3-(2-(trifluoromethyl)phenyl)azetidin-1-yl)cyclohexyl)oxy)isoindolin-2-yl)piperidine-2,6-dione]	25	<15
O=C1CCC(N2Cc3cc(O[C@H]4CCCC[C@@H]4N4CCC(c5ccccc5)CC4)ccc3C2=O)C(=O)N1 (stereo partly drawn) [Compound 79, 3-(1-oxo-5-(((1S,2S)-2-(4-phenylpiperidin-1-yl)cyclohexyl)oxy)isoindolin-2-yl)piperidine-2,6-dione]	12	<15
N#Cc1ccc(C2CN(C3CCCC3Oc3ccc4c(c3)CN(C3CCC(=O)NC3=O)C4=O)C2)cc1 (stereo not shown) [Compound 98, 4-(1-(2-((2-(2,6-dioxopiperidin-3-yl)-1-oxoisoindolin-5-yl)oxy)cyclopentyl)azetidin-3-yl)benzonitrile]	32	<15
N#Cc1ccc(C2CN(C3CCCC3Oc3ccc4c(c3)CN(C3CCC(=O)NC3=O)C4=O)C2)cc1F (stereo not shown) [Compound 110, 4-(1-(2-((2-(2,6-dioxopiperidin-3-yl)-1-oxoisoindolin-5-yl)oxy)cyclopentyl)azetidin-3-yl)-2-fluorobenzonitrile]	19	48.8
O=C1CCC(N2Cc3cc(O[C@H]4CCCC[C@@H]4N4CC(c5cccc(N6CCOCC6)c5)C4)ccc3C2=O)C(=O)N1 (stereo partly drawn) [Compound 112, 3-(5-(((1S,2S)-2-(3-(3-morpholinophenyl)azetidin-1-yl)cyclohexyl)oxy)-1-oxoisoindolin-2-yl)piperidine-2,6-dione]	25	72.6
N#Cc1cccc(C2CN([C@H]3CCCC[C@@H]3Oc3ccc4c(c3)CN(C3CCC(=O)NC3=O)C4=O)C2)c1 (stereo partly drawn) [Compound 113, 3-(1-((1S,2S)-2-((2-(2,6-dioxopiperidin-3-yl)-1-oxoisoindolin-5-yl)oxy)cyclohexyl)azetidin-3-yl)benzonitrile]	13	73.7
N#Cc1ccc(C2CN(C3CCCCC3Oc3ccc4c(c3)CN(C3CCC(=O)NC3=O)C4=O)C2)cc1 (stereo not shown) [Compound 117, 4-(1-(2-((2-(2,6-dioxopiperidin-3-yl)-1-oxoisoindolin-5-yl)oxy)cyclohexyl)azetidin-3-yl)benzonitrile]	31	<15
O=C1CCC(N2Cc3cc(OC4CCCCC4N4CC(c5ccccc5)C4)ccc3C2=O)C(=O)N1 (stereo not shown) [Compound 118, 3-(1-oxo-5-((2-(3-phenylazetidin-1-yl)cyclohexyl)oxy)isoindolin-2-yl)piperidine-2,6-dione]	36	<15
O=C1CCC(N2Cc3cc(O[C@H]4CCC[C@@H]4N4CC(c5ccccc5)C4)ccc3C2=O)C(=O)N1 (stereo partly drawn) [Compound 120, 3-(1-oxo-5-(((1S,2S)-2-(3-phenylazetidin-1-yl)cyclopentyl)oxy)isoindolin-2-yl)piperidine-2,6-dione]	11	78.8
O=C1CCC(N2Cc3cc(O[C@H]4CCCC[C@@H]4N4CC(c5ccc(F)cc5)C4)ccc3C2=O)C(=O)N1 (stereo partly drawn) [Compound 123, 3-(5-(((1S,2S)-2-(3-(4-fluorophenyl)azetidin-1-yl)cyclohexyl)oxy)-1-oxoisoindolin-2-yl)piperidine-2,6-dione]	11	74.4
O=C1CCC(N2Cc3cc(O[C@H]4CCCC[C@H]4N4CC(c5ccccc5)C4)ccc3C2=O)C(=O)N1 (stereo partly drawn) [Compound 128, 3-(1-oxo-5-(((1S,2R)-2-(3-phenylazetidin-1-yl)cyclohexyl)oxy)isoindolin-2-yl)piperidine-2,6-dione]	18	<15
Rac-3-(5-(((trans)-2-(3-hydroxy-3-phenylazetidin-1-yl)cyclohexyl)oxy)-1-oxoisoindolin-2-yl)piperidine-2,6-dione [Compound 96]	42	78.9

The remaining compounds from weak to strong by EC50 [1], led by results:

EC50 [1] [nM]	Compound	IKZF2 % Degradation @ 1 μM (IKZF2 (Helios)) [%]
11	O=C1CCC(N2Cc3cc(O[C@@H]4CCCC[C@@H]4N4CC(c5ccc(C(F)(F)F)cc5)C4)ccc3C2=O)C(=O)N1 (stereo partly drawn) [Compound 59, 3-(1-oxo-5-(((1R,2S)-2-(3-(4-(trifluoromethyl)phenyl)azetidin-1-yl)cyclohexyl)oxy)isoindolin-2-yl)piperidine-2,6-dione]	32.7
9	O=C1CCC(N2Cc3cc(O[C@H]4CCCC[C@@H]4N4CC(c5ccc(OC(F)F)cc5)C4)ccc3C2=O)C(=O)N1 (stereo partly drawn) [Compound 81, 3-(5-(((1S,2S)-2-(3-(4-(difluoromethoxy)phenyl)azetidin-1-yl)cyclohexyl)oxy)-1-oxoisoindolin-2-yl)piperidine-2,6-dione]	77.6
8	O=C1CCC(N2Cc3cc(O[C@H]4CCCC[C@@H]4N4CC(c5cccc(OC(F)F)c5)C4)ccc3C2=O)C(=O)N1 (stereo partly drawn) [Compound 80, 3-(5-(((1S,2S)-2-(3-(3-(difluoromethoxy)phenyl)azetidin-1-yl)cyclohexyl)oxy)-1-oxoisoindolin-2-yl)piperidine-2,6-dione]	76.7
7	O=C1CCC(N2Cc3cc(O[C@H]4CCC[C@@H]4N4CCC(c5ccccc5)CC4)ccc3C2=O)C(=O)N1 (stereo partly drawn) [Compound 72, 3-(1-oxo-5-(((1S,2S)-2-(4-phenylpiperidin-1-yl)cyclopentyl)oxy)isoindolin-2-yl)piperidine-2,6-dione]	38.2
6	O=C1CCC(N2Cc3cc(O[C@H]4CCCC[C@@H]4N4CC(c5ccc(F)cc5F)C4)ccc3C2=O)C(=O)N1 (stereo partly drawn) [Compound 57, 3-(5-(((1S,2S)-2-(3-(2,4-difluorophenyl)azetidin-1-yl)cyclohexyl)oxy)-1-oxoisoindolin-2-yl)piperidine-2,6-dione]	85.8
6	O=C1CCC(N2Cc3cc(O[C@H]4CCC[C@@H]4N4CCC(c5ccccc5)C4)ccc3C2=O)C(=O)N1 (stereo partly drawn) [Compound 121, 3-(1-oxo-5-(((1S,2S)-2-(3-phenylpyrrolidin-1-yl)cyclopentyl)oxy)isoindolin-2-yl)piperidine-2,6-dione]	75.9
5	O=C1CCC(N2Cc3cc(O[C@H]4CCC[C@@H]4N4CC(c5ccc(-n6cccn6)cc5)C4)ccc3C2=O)C(=O)N1 (stereo partly drawn) [Compound 73, 3-(5-(((1S,2S)-2-(3-(4-(1H-pyrazol-1-yl)phenyl)azetidin-1-yl)cyclopentyl)oxy)-1-oxoisoindolin-2-yl)piperidine-2,6-dione]	63.6
5	COc1cccc(C2CN([C@H]3CCCC[C@@H]3Oc3ccc4c(c3)CN(C3CCC(=O)NC3=O)C4=O)C2)c1 (stereo partly drawn) [Compound 126, 3-(5-(((1S,2S)-2-(3-(3-methoxyphenyl)azetidin-1-yl)cyclohexyl)oxy)-1-oxoisoindolin-2-yl)piperidine-2,6-dione]	84.3
